Data taken from the NIST ThermoML archive (doi:10.1021/je0497303).

Experiment: xn = mol fraction of the nth substance listed
Conditions: 101.3 kPa, Liquid, Taylor dispersion method

C1CCCCC1 [cyclohexane] + CCCO
298.15 K
Conditions	binary diffusion coefficient [m2/s]
x2 = 0.03	8.3e-10
x2 = 0.1	6.6e-10
x2 = 0.3	3.9e-10
x2 = 0.5	4.2e-10
x2 = 0.7	6.5e-10
x2 = 0.9	1e-09
x2 = 0.97	1.15e-09

C1CCCCC1 [cyclohexane] + CCO
298.15 K
Conditions	binary diffusion coefficient [m2/s]
x2 = 0.03	9.9e-10
x2 = 0.1	7.7e-10
x2 = 0.3	4.3e-10
x2 = 0.5	4.6e-10
x2 = 0.7	7.3e-10
x2 = 0.9	1.23e-09
x2 = 0.97	1.41e-09

CCO [ethanol] + O
298.15 K
Conditions	binary diffusion coefficient [m2/s]
x1 = 0.1	7e-10
x1 = 0.2	4.1e-10
x1 = 0.3	3.8e-10
x1 = 0.5	5.1e-10
x1 = 0.7	7.6e-10
x1 = 0.9	1.08e-09

CCCCCC [hexane] + CCCO
298.15 K
Conditions	binary diffusion coefficient [m2/s]
x2 = 0	5.2e-09
x2 = 0.03	3.37e-09
x2 = 0.1	2.17e-09
x2 = 0.3	1.38e-09
x2 = 0.5	1.15e-09
x2 = 0.7	1.08e-09
x2 = 0.9	1.09e-09
x2 = 0.97	1.03e-09
x2 = 1	1.02e-09

CCCCCC [hexane] + CCO
298.15 K
Conditions	binary diffusion coefficient [m2/s]
x2 = 0	5.74e-09
x2 = 0.03	4.07e-09
x2 = 0.1	2.41e-09
x2 = 0.3	1.54e-09
x2 = 0.5	1.3e-09
x2 = 0.7	1.3e-09
x2 = 0.9	1.43e-09
x2 = 0.97	1.54e-09
x2 = 1	1.6e-09

CO [methanol] + O
298.15 K
Conditions	binary diffusion coefficient [m2/s]
x1 = 0	1.57e-09
x1 = 0.1	1.22e-09
x1 = 0.3	9.5e-10
x1 = 0.5	1.03e-09
x1 = 0.7	1.37e-09
x1 = 0.9	1.87e-09
x1 = 0.97	2.05e-09

ClC(Cl)(Cl)Cl [tetrachloromethane] + CCCCO
binary diffusion coefficient [m2/s]
Conditions	x2 = 0	x2 = 0.03	x2 = 0.1	x2 = 0.3	x2 = 0.5	x2 = 0.7	x2 = 0.9	x2 = 0.97	x2 = 1
298.15 K	1.47e-09	7e-10	5e-10	2.9e-10	3.2e-10	5.4e-10	6.5e-10	6.9e-10	7.2e-10
308.15 K	1.74e-09	9.3e-10	7.1e-10	5.2e-10	5.6e-10	6.5e-10	8e-10	8.9e-10	9.4e-10

ClC(Cl)(Cl)Cl [tetrachloromethane] + CCCO
298.15 K
Conditions	binary diffusion coefficient [m2/s]
x2 = 0	1.61e-09
x2 = 0.03	8.3e-10
x2 = 0.1	6.1e-10
x2 = 0.3	3.9e-10
x2 = 0.5	4.6e-10
x2 = 0.7	6.6e-10
x2 = 0.9	8.3e-10
x2 = 0.97	9.1e-10
x2 = 1	9.5e-10

ClC(Cl)(Cl)Cl [tetrachloromethane] + CCO
binary diffusion coefficient [m2/s]
Conditions	x2 = 0	x2 = 0.03	x2 = 0.1	x2 = 0.3	x2 = 0.5	x2 = 0.7	x2 = 0.9	x2 = 0.97	x2 = 1
298.15 K	1.9e-09	1.06e-09	8.2e-10	6.4e-10	7.3e-10	9.9e-10	1.32e-09	1.43e-09	1.47e-09
303.15 K	2.15e-09	1.6e-09	9.9e-10	8.3e-10	8.7e-10	1.14e-09	1.45e-09	1.56e-09	1.61e-09
308.15 K	2.24e-09	1.8e-09	1.1e-09	9.5e-10	9.9e-10	1.28e-09	1.6e-09	1.76e-09	1.82e-09

Cc1ccccc1 [toluene] + CCCO
298.15 K
Conditions	binary diffusion coefficient [m2/s]
x2 = 0	2.67e-09
x2 = 0.03	2.37e-09
x2 = 0.1	1.81e-09
x2 = 0.3	1e-09
x2 = 0.5	8.5e-10
x2 = 0.7	1.01e-09
x2 = 0.9	1.28e-09
x2 = 0.97	1.4e-09
x2 = 1	1.46e-09

Cc1ccccc1 [toluene] + CCO
binary diffusion coefficient [m2/s]
Conditions	x2 = 0	x2 = 0.03	x2 = 0.1	x2 = 0.3	x2 = 0.5	x2 = 0.7	x2 = 0.9	x2 = 0.97	x2 = 1
298.15 K	3.12e-09	2.94e-09	2.41e-09	1.22e-09	9.8e-10	1.16e-09	1.55e-09	1.7e-09	1.74e-09
308.15 K	3.61e-09	3.4e-09	2.9e-09	1.7e-09	1.35e-09	1.59e-09	1.89e-09	2.04e-09	2.11e-09
